Reference: US6878733B1, “Formulations for pharmaceutical agents ionizable as free acids or free bases” (Sugen, Inc., priority 1999, dated 2005)
≈ marks a conversion by molar mass, not a printed value.

How the values were obtained:
[1] = target: Flk-1/KDR (Homo sapiens, UniProt P35968); test: Inhibition of signal transduction via Flk-1/KDR
[2] = tested on: PDGF receptor; test: Inhibition of signal transduction via PDGF receptor
[3] = tested on: A375 human melanoma; test: SC tumor xenograft growth, A375; assay type: in vivo; conditions: IP in DMSO, 75 mg/kg/d dosed 3x/week
Description: (§1) In most experiments, compound was administered daily.
(§2) Tumor growth was measured using venier calipers. Tumor volumes were calculated as the produce of length x width x height.

[4] = tested on: FGF receptor; test: Inhibition of signal transduction via FGF receptor
[5] = physchem; assay type: physicochemical
[6] = tested on: EpH4-VEGF1 murine epithelial; test: SC tumor xenograft growth, EpH4-VEGF1; assay type: in vivo; conditions: IP in DMSO, 75 mg/kg/d daily
Description: as §1, §2

[7] = tested on: A431 human epidermal; test: SC tumor xenograft growth, A431; assay type: in vivo, BALB/c nu/nu mice; conditions: IP in DMSO, 100 mg/kg/d daily
Description: as §1, §2

[8] = tested on: SF763T human glioma; test: SC tumor xenograft growth, SF763T; assay type: in vivo, BALB/c nu/nu mice; conditions: IP in DMSO, 75 mg/kg/d daily
Description: (§3) Medium was changed every two to three days.
as §1, §2

[9] = pH solubility profile; assay type: physicochemical; conditions: 0.1 M phosphate buffer, thermodynamic from solid
Description: The solution was filtered, appropriate dilutions made and the concentration of the compound in the supernatant was analyzed by a reverse phase HPLC method.

[10] = tested on: SF767T human glioma; test: SC tumor xenograft growth, SF767T; assay type: in vivo, BALB/c nu/nu mice; conditions: IP in DMSO, 75 mg/kg/d daily
Description: as §3, §1, §2

[11] = tested on: C6 rat glioma; test: SC tumor xenograft growth, C6, treatment from one day post-implantation; assay type: in vivo, BALB/c nu/nu mice; conditions: IP
Description: as §1, §2

[12] = tested on: C6 cells; test: Efficacy on established C6 SC tumors; assay type: in vivo, athymic mice; conditions: IP 75 mg/kg/day, onset delayed until measurable tumors were present (Day 7)
[13] = Oral bioavailability of formulations in beagle dogs; assay type: in vivo; conditions: at higher doses in fasted conditions
Description: The formulation described below enhance the oral bioaviability of COMPOUND IV in beagle dogs, a preclinical absorption model.
Both formulations contain 50 mg/gm of Pluroanic F-68. The formulation at 50 mg/gm of COMPOUND IV contains 900 mgs of sesame oil and the one that contains 250 mg/gm of COMPOUND IV contains 700 mgs of sesame oil.
AUC refers to the area under the curve of the plasma concentration time curve and represents oral bioavilability (BA). Higher AUC indicates higher BA.

[14] = Solubility of in situ salts versus free acid; assay type: physicochemical

Chain of Flk-1/KDR (P35968 20-1356): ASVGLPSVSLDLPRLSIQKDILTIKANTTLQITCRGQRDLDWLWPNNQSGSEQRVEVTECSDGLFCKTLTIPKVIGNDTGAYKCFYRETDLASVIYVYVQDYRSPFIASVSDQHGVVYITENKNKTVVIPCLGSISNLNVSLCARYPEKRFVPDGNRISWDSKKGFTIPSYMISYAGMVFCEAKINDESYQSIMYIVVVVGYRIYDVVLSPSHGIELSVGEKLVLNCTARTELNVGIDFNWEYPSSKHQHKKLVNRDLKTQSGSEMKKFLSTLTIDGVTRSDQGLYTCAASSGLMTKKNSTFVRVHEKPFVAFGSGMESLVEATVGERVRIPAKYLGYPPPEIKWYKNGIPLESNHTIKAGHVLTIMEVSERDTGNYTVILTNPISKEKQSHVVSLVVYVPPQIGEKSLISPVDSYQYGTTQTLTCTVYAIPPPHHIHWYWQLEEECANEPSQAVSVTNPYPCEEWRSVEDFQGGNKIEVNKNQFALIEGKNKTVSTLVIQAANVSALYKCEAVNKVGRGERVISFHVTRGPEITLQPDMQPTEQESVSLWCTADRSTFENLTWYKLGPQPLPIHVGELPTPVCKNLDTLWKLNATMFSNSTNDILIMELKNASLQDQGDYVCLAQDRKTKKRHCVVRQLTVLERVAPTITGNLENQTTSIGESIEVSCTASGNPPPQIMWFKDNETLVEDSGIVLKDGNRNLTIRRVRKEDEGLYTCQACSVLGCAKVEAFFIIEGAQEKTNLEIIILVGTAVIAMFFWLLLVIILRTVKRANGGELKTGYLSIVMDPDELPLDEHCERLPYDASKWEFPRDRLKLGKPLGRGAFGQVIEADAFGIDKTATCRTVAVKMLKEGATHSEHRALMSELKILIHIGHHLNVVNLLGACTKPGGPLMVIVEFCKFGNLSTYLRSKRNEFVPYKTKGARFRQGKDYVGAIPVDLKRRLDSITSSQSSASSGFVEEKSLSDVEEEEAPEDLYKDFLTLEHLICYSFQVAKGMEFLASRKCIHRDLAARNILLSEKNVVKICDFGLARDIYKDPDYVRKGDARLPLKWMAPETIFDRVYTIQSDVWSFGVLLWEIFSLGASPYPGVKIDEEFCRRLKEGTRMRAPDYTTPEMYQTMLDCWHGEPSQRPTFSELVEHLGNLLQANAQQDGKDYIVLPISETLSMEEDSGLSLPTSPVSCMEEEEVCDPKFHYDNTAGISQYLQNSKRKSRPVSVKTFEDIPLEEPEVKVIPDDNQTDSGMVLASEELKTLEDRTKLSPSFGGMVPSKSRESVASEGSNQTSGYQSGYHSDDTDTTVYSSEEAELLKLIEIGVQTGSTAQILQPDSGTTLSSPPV

Q: With Cc1[nH]c(C=C2C(=O)Nc3ccccc32)c(C)c1CCC(=O)O [3-[2,4-Dimethyl-5-(2-oxo-1,2-dihydro-indol-3-ylidenemethyl)-1H-pyrrol-3-yl]-propionic acid] as the compound, how does the “inhibitor of signal transduction via Flk-1/KDR” value [1] read?
A: The value was “potent inhibitor”.

Q: And the “inhibitor of signal transduction via PDGF receptor” value [2]?
A: Its value is “potent inhibitor”.

Q: And the “% Mortality” value [3]?
A: The value was 0%.

Q: What about the “inhibitor of signal transduction via FGF receptor” value [4] of the same compound?
A: The value was “potent inhibitor”.

Q: What about the logP [5] of the same compound?
A: The logP was 3.85.

Q: And the pKa [5]?
A: Its pKa is 5.02.

Q: What about the logD ([5]; pH 7.4) of the same compound?
A: Its logD is 1.5.

Q: What about the “% Mortality” value [6] of the same compound?
A: The value was 0%.

Q: And the “% Mortality” value [7]?
A: The value was 12.5%.

Q: And the “% Mortality” value [8]?
A: Its value is 12.5%.

Q: What about the solubility ([9]; pH 6, aqueous buffer, pH of buffer 6.0 (0.1 M phosphate), average pH at equilibrium 6.06, two lots) of the same compound?
A: The solubility was 2.4 µg/mL (≈ 7.73 µM).

Q: And the solubility ([9]; pH 6.5, aqueous buffer, pH of buffer 6.5 (0.1 M phosphate), average pH at equilibrium 6.52)?
A: Its solubility is 4 µg/mL (≈ 12.9 µM).

Q: What about the solubility ([9]; pH 7, aqueous buffer, pH of buffer 7.0 (0.1 M phosphate), average pH at equilibrium 6.96) of the same compound?
A: Its solubility is 9 µg/mL (≈ 29 µM).

Q: And the solubility ([9]; pH 7.4, aqueous buffer, pH of buffer 7.4 (0.1 M phosphate), average pH at equilibrium 7.39)?
A: Its solubility is 19 µg/mL (≈ 61.2 µM).

Q: And the “% Mortality” value [10]?
A: The value was 12.5%.

Q: And the “% Inhibition (at day)” value ([11]; 25 mg/kg Daily × 5, day 18, ns (P > 0.05))?
A: The value was 1 (18) %.

Q: And the tumor growth inhibition ([11]; 100 mg/kg twice weekly or three times weekly, statistically significant)?
A: Its tumor growth inhibition is “approximately 40%”.

Q: What about the “efficacy on established tumors” value [12] of the same compound?
A: The value was “efficacious”.

Q: With Cc1[nH]c(/C=C2\C(=O)Nc3ccccc32)c(C)c1CCC(=O)O [COMPOUND IV, 3-[2,4-dimethyl-5-(2-oxo-1,2-dihydro-indol-3-ylidenemethyl)-1H-pyrrol-3-yl]-propionic acid] as the compound, how does the oral bioavailability [13] read?
A: The oral bioavailability was “low bioavailability”.

Q: For Cc1[nH]c(C=C2C(=O)Nc3ccccc32)c(C)c1CCC(=O)O [Meglumine, 3-[2,4-dimethyl-5-(2-oxo-1,2-dihydro-indol-3-ylidenemethyl)-1H-pyrrol-3-yl]-propionic acid], which solubility ([14]; aqueous solution of the salt formed in situ, salt of 3-[2,4-dimethyl-5-(2-oxo-1,2-dihydro-indol-3-ylidenemethyl)-1H-pyrrol-3-yl]-propionic acid, in situ salt formation, pH in the column beside, read-out: Solubility) is on record?
A: Its solubility is 7900 µg/mL.

Q: Which solubility ([14]; water, aqueous, sodium salt compared to free acid, read-out: solubility) does the source give for Cc1[nH]c(C=C2C(=O)Nc3ccccc32)c(C)c1CCC(=O)O [free acid, 3-[2,4-dimethyl-5-(2-oxo-1,2-dihydro-indol-3-ylidenemethyl)-1H-pyrrol-3-yl]-propionic acid] here?
A: The solubility was less than 100 µg/mL.

Q: And the solubility ([14]; water, free acid, for comparison with the sodium salt, read-out: aqueous solubility)?
A: The solubility was roughly 30 µg/mL.
